# Measurements taken from patent US3994901A, “5-[1-Hydroxy-2-(s ubstituted-amino)]alkyl-8-hydroxy-3,4-dihydrocarbostyril derivatives” (Otsuka Pharmaceutical Company Limited, priority 1974, dated 1976).
# Structures can show the parent of a compound that is named as a salt.
# Legend:
# in vivo = details: rat, male rats (dd strain), fasted 12 hours
# β-adreno-receptor = experiment: Inhibition of histamine-induced bronchoconstriction (bronchial resistance, Konzett-Rossler method) in anesthetized dogs; β-adreno-receptor stimulating activity; format: in vivo, dog (male hybrid adult dogs); details: femoral vein, 1 minute before histamine 10 mg/kg
# Protocol: The stimulating activity of the compounds of this invention on β-adreno-receptor was determined as follows:
# Male hybrid adult dogs, weighing 10 to 15 kg were anesthesized with 30 mg/kg of body weight of sodium pentobarbital administered intravenously. Each of the anesthesized dogs were secured on its back and a cannula was inserted into the trachea. Artificial respiration was conducted using a device according to the Konzett-Rossler method (Konzett H. & Rossler R., "Versuchsanordnug zu Untersuchungen an der Bronchial Moskolatur", Arch. Exp. Path., Pharmack, 195, 71 - 74, 27 - 40 (1940)). The volume of the overflowing air at the time of inhalation was measured through a pneumotachometer to determine the bronchial resistance and the values obtained were recorded on a polygraph.
# In the above experiment, histamine was employed as a bronchoconstrictor at a dosage level of 10 mg/kg of body weight, and an aqueous solution containing each of the test compounds and controls shown in Table 1 below was then administered to each of the anesthesized dogs through the femoral vein at various dosage levels shown in Table 1 below 1 minute before the administration of the histamine. Sodium pentobarbital was infused during the experiment at a dosage level of 4 mg/kg of body weight/hr using an automatic injector in order to inhibit spontaneous respiration and to keep the anesthetic condition constant over the test period.
Structure (SMILES),"LD50 (in vivo; iv, I.v.) [mg/kg]",LD50 (in vivo; po) [mg/kg],Bronchial Resistance (%) (β-adreno-receptor; dose 0.03 ug/Kg),Bronchial Resistance (%) (β-adreno-receptor; dose 1.0 ug/Kg),Bronchial Resistance (%) (β-adreno-receptor; dose 0.01 ug/Kg),Bronchial Resistance (%) (β-adreno-receptor; dose 0.1 ug/Kg),Bronchial Resistance (%) (β-adreno-receptor; dose 0.3 ug/Kg),Bronchial Resistance (%) (β-adreno-receptor; dose 3.0 ug/Kg),Bronchial Resistance (%) (β-adreno-receptor; dose 10 ug/Kg),Bronchial Resistance (%) (β-adreno-receptor; dose 30 ug/Kg),Bronchial Resistance (%) (β-adreno-receptor; dose 100 ug/Kg)
"CCC(NC(C)C)C(O)c1ccc(O)c2c1CCC(=O)N2 (stereo not drawn) [5-(1-Hydroxy-2-isopropylamino)butyl-8-hydroxy-3,4-dihydrocarbostyril]",81.5,830,,,,,,,,,
CC(C)NCC(O)c1ccc(O)c(O)c1 (stereo not drawn) [Isoproterenol],,,16.6,100,,,,,,,
CC(C)NCC(O)c1cc(O)cc(O)c1 (stereo not drawn) [Metaproterenol Sulfate (Arotec)],,,0,27.5,0,2.7,11.1,50.0,88.3,100,
CC(C)NCC(O)c1ccc(O)c2ncccc12 (stereo not drawn) [Quinterenol],,,0,0,0,0,0,0,0,7.6,15.3
CC(C)(C)NCC(O)c1ccc(O)c(CO)c1 (stereo not drawn) [Salbutamol],,,0,66.6,0,16.6,33.3,100,,,
